# Activity calls are given as the source filed them. No rule for the calls is given here.
# Molecular target: Ubiquitin-conjugating enzyme E2 N (Homo sapiens) (UniProt P61088)
# Test: UBE2N binders by NMR, biophysical, purified protein (AID 1552)
# Conditions: NMR binding to purified UBE2N
# Chain of Ubiquitin-conjugating enzyme E2 N (Homo sapiens) (P61088 whole entry, looked up): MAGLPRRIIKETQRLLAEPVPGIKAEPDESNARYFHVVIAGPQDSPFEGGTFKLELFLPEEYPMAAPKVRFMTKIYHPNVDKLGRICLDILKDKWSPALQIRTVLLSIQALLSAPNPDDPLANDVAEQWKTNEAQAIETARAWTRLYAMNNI
row,SMILES,Kd
1,Cn1c(=O)cc(N2CCCCC2)[nH]c1=O,> 4 mM (inactive)
2,CSc1ccccc1C(=O)N1CCOCC1,> 4 mM (inactive)
3,O=C1O[C@H](C(O)CO)C(O)=C1O (stereo partly drawn),> 4 mM (inactive)
4,NC(=O)CN1C(=O)c2cccc3cccc1c23,> 4 mM (inactive)
5,NC(=O)CN1CCC(c2nc3ccccc3[nH]2)CC1,> 4 mM (inactive)
6,CC(=O)O[C@H]1C[C@@H](OC(C)=O)C(C)(C)C2C[C@@H](OC(C)=O)[C@]3(C)C([C@H](OC(C)=O)C[C@@]4(C)[C@H](c5ccoc5)OC(=O)[C@H]5O[C@]543)[C@]21C (stereo partly drawn),> 4 mM (inactive)
7,CN1CN(Cc2ccccc2)CN/C1=N/[N+](=O)[O-],> 4 mM (inactive)
8,Cc1nnc(SCC(=O)Nc2ccccc2)[nH]c1=O,> 4 mM (inactive)
9,CSc1ccc(S(=O)(=O)N2CCCC2)cc1,> 4 mM (inactive)
10,CCOC(=O)c1c[nH]c2c(F)cccc2c1=O,> 4 mM (inactive)
11,CC(C)=CCc1c(O)cc2occ(-c3ccc4c(c3)OCO4)c(=O)c2c1O,> 4 mM (inactive)
12,O=C1N/C(=N\c2ccccn2)SC1Cc1ccccc1 (stereo not drawn),> 4 mM (inactive)
13,O=C(Nc1ccc2c(c1)OCCO2)c1ccncc1,> 4 mM (inactive)
14,CN1CCN(CC(O)c2ccccc2)CC1 (stereo not drawn),> 4 mM (inactive)
15,COC(=O)Nc1nnc(-c2ccncc2)s1,> 4 mM (inactive)
16,O=C(CC1Nc2ccccc2NC1=O)Nc1ccc(O)cc1 (stereo not drawn),> 4 mM (inactive)
17,NC(=O)c1ccc(-c2csnn2)cc1,> 4 mM (inactive)
18,Nc1nc2ccc(N3CCOCC3)cc2s1,> 4 mM (inactive)
19,COc1ccc(-c2nc(N)n(C(C)=O)n2)cc1,> 4 mM (inactive)
20,O=C(Nn1c(=S)[nH]c2ccccc2c1=O)c1ccncc1,> 4 mM (inactive)
21,CC1=CCc2c(cc3oc(C)cc(=O)c3c2O)OC1,> 4 mM (inactive)
22,NCCN=C1NS(=O)(=O)c2ccccc21,> 4 mM (inactive)
23,O=C(CSc1ncn[nH]1)c1ccc2c(c1)OCO2,> 4 mM (inactive)
24,Oc1ccc2c(c1)OCO2,> 4 mM (inactive)

row,SMILES,Kd
1,CC1=CCCC2C1(C)CCC(C)C2(C)CC/C(C)=C/C[n+]1cn(C)c2c(N)ncnc21 (stereo not drawn),> 4 mM (inactive)
2,CSc1ccccc1NC(=O)c1cccnc1,> 4 mM (inactive)
3,O=C(Nc1nncs1)c1c(F)c(F)c(F)c(F)c1F,> 4 mM (inactive)
4,C=CCc1ccc(O)c(OC)c1,> 4 mM (inactive)
5,Cc1cc(SCC(=O)c2ccccc2)nc(=O)[nH]1,> 4 mM (inactive)
6,O=C1CCC(=O)N1c1nc2ccccc2s1,> 4 mM (inactive)
7,Cn1nnc2cc(C(=O)O)ccc21,> 4 mM (inactive)
8,NNC(=O)c1ccccc1-n1cccc1,> 4 mM (inactive)
9,O=c1c2c(nc3nc(Cc4ccccc4)[nH]n13)CCC2,> 4 mM (inactive)
10,Cc1cc(C(=O)Nc2ccon2)cs1,> 4 mM (inactive)
11,O=C(c1cccs1)N1CCCc2ccccc21,> 4 mM (inactive)
12,COc1ccc(-c2oc3ccccc3c(=O)c2O)cc1OC,> 4 mM (inactive)
13,CC12CN3CC(C)(CN(C1)C3c1cccs1)C2O (stereo not drawn),> 4 mM (inactive)
14,Nc1nc(SCc2ccccc2)ns1,> 4 mM (inactive)
15,O=C(Nc1ccccc1C(F)(F)F)c1cnccn1,> 4 mM (inactive)
16,O=C(c1ccccc1)c1ccc(N2CCNCC2)cc1,> 4 mM (inactive)
17,CC1(C)C(=O)CC[C@@]2(C)C1C[C@@H](O)[C@@]1(C)C3=CC(=O)O[C@@H](c4ccoc4)[C@]3(C)CCC21 (stereo partly drawn),> 4 mM (inactive)
18,COc1cccc(/C=N/N=C2/NC(=O)CS2)c1,> 4 mM (inactive)
19,O=C(O[C@@H]1Cc2c(O)cc(O)cc2O[C@@H]1c1ccc(O)c(O)c1)c1cc(O)c(O)c(O)c1,> 4 mM (inactive)
20,Nc1ccc(-c2cn3c(n2)SCC3)cc1,> 4 mM (inactive)
21,CS(=O)(=O)c1ccc2nc(N)sc2c1,> 4 mM (inactive)
22,NC(=O)c1ccc(NC(=O)c2cccnc2)cc1,> 4 mM (inactive)
23,OC[C@H]1O[C@@](CO)(O[C@@H]2O[C@H](CO)[C@@H](O)[C@H](O)[C@H]2O)[C@@H](O[C@@H]2O[C@H](CO)[C@@H](O)[C@H](O)[C@H]2O)[C@@H]1O,> 4 mM (inactive)
24,O=[N+]([O-])c1c[n+]([O-])n(-c2ccccc2)n1,> 4 mM (inactive)

row,SMILES,Kd
1,CCC(=O)Nc1cc(C(C)C)c(O)cc1C,> 4 mM (inactive)
2,O=C(O)Cn1c(=O)sc2ccccc21,> 4 mM (inactive)
3,CN1CCC(NC(=O)c2cnccn2)CC1,> 4 mM (inactive)
4,O=C(Nc1cccc(Cl)c1)c1ccncc1,> 4 mM (inactive)
5,NC1=NC(=O)/C(=C/c2cccc([N+](=O)[O-])c2)S1,> 4 mM (inactive)
6,NC(=O)CC1NC(=O)c2ccccc21 (stereo not drawn),> 4 mM (inactive)
7,CCOC(=O)C1C(C=C(C)C)C1(C)C (stereo not drawn),> 4 mM (inactive)
8,NC(=O)c1ccsc1N,> 4 mM (inactive)
9,CC(C)(O)CC[C@@H](O)[C@](C)(O)C1CC[C@@]2(O)C3=CC(=O)C4C[C@@H](O)[C@@H](O)C[C@]4(C)C3CC[C@]12C (stereo partly drawn),> 4 mM (inactive)
10,NC(=O)/C=C/C(=O)Nc1ccccc1,> 4 mM (inactive)
11,O=C(O)C1CCCN1Cc1c[nH]c2ccccc12 (stereo not drawn),> 4 mM (inactive)
12,Cc1nc2ccccc2c2c1C(=O)N(C)C2=O,> 4 mM (inactive)
13,Nc1nc(-c2nc3ccccc3[nH]2)cs1,> 4 mM (inactive)
14,CCN1CCC(NC2CCC(O)CC2)CC1 (stereo not drawn),> 4 mM (inactive)
15,CC(=O)Nc1ccn(-c2ccccc2)n1,> 4 mM (inactive)
16,Nc1cccnc1Oc1ccc(F)cc1F,> 4 mM (inactive)
17,Cc1nnc(NCc2ccc3c(c2)OCO3)[nH]c1=O,> 4 mM (inactive)
18,CN(C)c1oc(-c2ccccc2Cl)nc1C#N,> 4 mM (inactive)
19,Nc1nnc(COc2cccc(C(F)(F)F)c2)s1,> 4 mM (inactive)
20,COc1ccc(-c2c(C)n([O-])c(C)c(C)[n+]2=O)cc1,> 4 mM (inactive)
21,Cc1cc(C(=O)N2CCN(c3ncccn3)CC2)c(C)o1,> 4 mM (inactive)
22,COc1ccc2ccc(=O)oc2c1,> 4 mM (inactive)
23,CN(C)S(=O)(=O)c1ccccc1C#N,> 4 mM (inactive)
24,CS(=O)(=O)Nc1cc2c3c(c1)CCN3C(=O)CC2,> 4 mM (inactive)

row,SMILES,Kd
1,CN1C(=O)Cc2cc(S(N)(=O)=O)ccc21,> 4 mM (inactive)
2,c1coc(CNc2nc(-c3ccncc3)cs2)c1,> 4 mM (inactive)
3,CC(=O)N1CCN(c2ccc(N)cc2)CC1,> 4 mM (inactive)
4,C[C@@H](N)[C@@H](O)c1ccccc1,> 4 mM (inactive)
5,O=C(/C=C/c1ccccc1)c1ccc(O)cc1,> 4 mM (inactive)
6,COc1ccccc1/C=C/CN1CCOCC1,> 4 mM (inactive)
7,NCc1ccc2c(c1)CCO2,> 4 mM (inactive)
8,CCOC(=O)c1c(C)cc(OC)cc1O,> 4 mM (inactive)
9,Oc1ccccc1C(=S)N1CCCCCC1,> 4 mM (inactive)
10,COc1ccc(CN2CCNC(=O)C2CC(=O)O)cc1C (stereo not drawn),> 4 mM (inactive)
11,Cc1ccc(-c2nc(-c3cccnc3)no2)cc1,> 4 mM (inactive)
12,CC(=O)Nc1cc(S(=O)(=O)N(C)C)ccc1Cl,> 4 mM (inactive)
13,Nc1cc(=O)[nH]c(=S)n1CCc1ccccc1,> 4 mM (inactive)
14,Cc1ccc(N2C(=O)CC(Sc3ncn[nH]3)C2=O)cc1 (stereo not drawn),> 4 mM (inactive)
15,Nc1ncnc(Nc2ccccc2C(F)(F)F)n1,> 4 mM (inactive)
16,Cc1ccc(/C=C/C(=O)O)cc1S(=O)(=O)NCCO,> 4 mM (inactive)
17,COC(=O)c1ccc(N2CCCC2)nc1,> 4 mM (inactive)
18,Cc1cc(C)n(-c2ccc(Cl)nn2)n1,> 4 mM (inactive)
19,O=C(NCc1ccco1)c1nc2ncccn2n1,> 4 mM (inactive)
20,Oc1ccccc1N=Cc1cccnc1,> 4 mM (inactive)
21,NC1Cc2ccccc2C1,> 4 mM (inactive)
22,O=C(Nc1ccc2c(c1)OCCO2)c1c(F)cccc1F,> 4 mM (inactive)
23,O=C(NCc1ccccc1Cl)c1cnn2cccnc12,> 4 mM (inactive)
24,O=CN1CCN(C2CC(=O)N(c3ccccc3)C2=O)CC1 (stereo not drawn),> 4 mM (inactive)

row,SMILES,Kd
1,CC(=O)NC(=S)Nc1ccc(C(C)=O)cc1,> 4 mM (inactive)
2,O=C1CSC(=Nc2ccc(Cl)cc2)N1,> 4 mM (inactive)
3,O=C(CC1SC(=O)NC1=O)Nc1ccccc1 (stereo not drawn),> 4 mM (inactive)
4,COc1ccc2c(c1)=C(c1sc(N)nc1O)C(=O)N=2,> 4 mM (inactive)
5,O=C(O)CN1CCN(C2CCCC2)CC1,> 4 mM (inactive)
6,CC(C)CCCC(C)[C@H]1CCC2C3CC[C@@H]4C[C@H](O)CC[C@]4(C)C3CC[C@@]21C (stereo partly drawn),> 4 mM (inactive)
7,CC(=O)Nc1ccc2c(c1)CCC2=O,> 4 mM (inactive)
8,CC1CCc2cc(F)ccc2N1C(=O)c1ccc(=O)[nH]n1 (stereo not drawn),> 4 mM (inactive)
9,O=c1c(O)c(-c2ccc(O)c(O)c2)oc2cc(O)ccc12,> 4 mM (inactive)
10,O=C1NC(=O)/C(=C\c2ccncc2)S1,> 4 mM (inactive)
11,Cc1cc(=O)[nH]c(NCc2cccnc2)n1,> 4 mM (inactive)
12,NCc1nc2ccccc2s1,> 4 mM (inactive)
13,O=C(Nc1nccs1)c1cccnc1,> 4 mM (inactive)
14,CC(C)=CCCC1(C)C=Cc2c(O)c3c(c(CC=C(C)C)c2O1)OC12C(=CCCC1C(C)(C)O[C@@]2(C/C=C(\C)C(=O)O)C(=O)O)C3=O (stereo partly drawn),> 4 mM (inactive)
15,O=c1[nH]c(O)c(C=NCc2cccs2)c(=O)[nH]1,> 4 mM (inactive)
16,O=C1c2cccnc2C(=O)N1Cc1ccc2c(c1)OCO2,> 4 mM (inactive)
17,CC(=O)c1nnc2cc(C)nn2c1C,> 4 mM (inactive)
18,O=C(Nc1ccon1)c1ccc(Cl)s1,> 4 mM (inactive)
19,O=C1CNC(=O)/C1=C/c1ccc(O)cc1,> 4 mM (inactive)
20,Cc1nnc2ccc(N3CCCC3)nn12,> 4 mM (inactive)
21,O=c1cc(-c2ccccc2)oc2cc(O)c(O)c(O)c12,> 4 mM (inactive)
22,O=C(NCc1cccc(Cl)c1)c1cccnc1,> 4 mM (inactive)
